Measured values published in patent US12083101B2, “Biaryl derivatives as YAP/TAZ-TEAD protein-protein interaction inhibitors” (Novartis AG, priority 2020, dated 2024).
Where two headings read alike, the source gives them in different places.

How the values were obtained:
[1] = system: NCI-H2052 Tet-On shYAP_2371 pLenti6 MCAT_Luc cells (YAP-dependent transcription); assay: YAP reporter gene activity assay (MCAT-luciferase), NCI-H2052; format: cell-based; conditions: 24 hours incubation, BrightGlo luminescence
Method in brief: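 NCI-H2052 cells carrying an MCAT-luciferase reporter and a tetracycline-inducible YAP 3′UTR shRNA were treated with eleven 2-fold compound dilutions (0.1% DMSO) for 24 h at 37 °C. BrightGlo luminescence was background-subtracted and expressed as % of DMSO control. IC50 came from a four-parameter fit; MKN-45/Ubc-luc cells served as the specificity counterscreen.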

[2] = target: Avi-humanTEAD4 217-434 / Cy5 labeled humanYAP 60-100 (Homo sapiens (Human), UniProt Q15561); assay: TR-FRET YAP-TEAD4 in-vitro biochemical assay; format: binding; conditions: 1 nM Avi-humanTEAD4 217-434, 20 nM Cy5-humanYAP 60-100, 1 h room temperature
MKN-45/Ubc-luc cells [3] = assay: Reporter gene specificity control (Ubc-luciferase), MKN-45
[4] = system: NCI-H2052 Tet-On shYAP_2371 pLenti6 MCAT_Luc cells; assay: Proliferation assay (resazurin), NCI-H2052; format: cell-based; conditions: 72 hours incubation
Method in brief: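 The NCI-H2052 line carries a Tet-inducible shRNA against the YAP1 3′UTR and an MCAT luciferase reporter. The day after seeding, it received eleven 2-fold compound dilutions at 0.1% DMSO, and viability was read by resazurin fluorescence.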

MKN-45/Ubc-luc cells [5] = assay: Proliferation assay (resazurin), MKN-45; format: cell-based; conditions: 72 hours incubation
[6] = Homo sapiens, MKN-45, 24 h, read-out: Reporter gene assay MKN-45 IC50 [μM], MKN-45/Ubc-luc cells (YAP deleted, specificity control), 24 hours incubation

Chain of Avi-humanTEAD4 217-434 / Cy5 labeled humanYAP 60-100 (Q15561 217-434): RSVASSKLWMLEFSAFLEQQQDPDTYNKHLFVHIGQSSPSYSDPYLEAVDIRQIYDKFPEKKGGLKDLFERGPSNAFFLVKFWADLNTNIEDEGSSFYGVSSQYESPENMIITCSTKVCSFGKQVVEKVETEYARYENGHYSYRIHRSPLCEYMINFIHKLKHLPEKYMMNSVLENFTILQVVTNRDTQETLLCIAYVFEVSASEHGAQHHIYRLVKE

| Compound | IC50 ([1]; Homo sapiens, NCI-H2052, 24 h) [nM] | IC50 [2] [nM] | IC50 (MKN-45/Ubc-luc cells [3]; [6]) [µM] | GI50 ([4]; Homo sapiens, NCI-H2052, 72 h) [nM] | GI50 (MKN-45/Ubc-luc cells [5]; Homo sapiens) [nM] | IC50 [1] [nM] | IC50 (MKN-45/Ubc-luc cells [3]; read-out: Reporter gene assay MKN-45 IC50, MKN-45/Ubc-luc cells (YAP deleted, specificity control), 24 hours incubation) [µM] | GI50 [4] [nM] | GI50 (MKN-45/Ubc-luc cells [5]) [nM] |
| --- | --- | --- | --- | --- | --- | --- | --- | --- | --- |
| CNC[C@]1(c2ccccc2)Oc2cc(F)c(Cl)c(-c3c(C(=O)NC)cnc(OCCO)c3F)c2[C@@H]1C (atropisomer, axis not shown) [Example 145, 4-((2S,3S,4S)-5-Chloro-6-fluoro-3-methyl-2-((methylamino)methyl)-2-phenyl-2,3-dihydrobenzofuran-4-yl)-5-fluoro-6-(2-hydroxyethoxy)-N-methylnicotinamide] | 46 | 5 | > 20 | 58 | > 20000 | – | – | – | – |
| CNC[C@]1(c2ccccc2)Oc2cc(F)c(Cl)c(-c3c(C(N)=O)ccc(OC)c3F)c2[C@@H]1COC (atropisomer, axis not shown) [Example 146, 2-((2S,3R,4S)-5-Chloro-6-fluoro-3-(methoxymethyl)-2-((methylamino)methyl)-2-phenyl-2,3-dihydrobenzofuran-4-yl)-3-fluoro-4-methoxybenzamide] | 25 | 3 | > 10 | 23 | > 10000 | – | – | – | – |
| C[C@H]1c2c(cc(F)c(Cl)c2-c2c(C(N)=O)ccc(OCC(C)(C)O)c2F)O[C@]1(CN[C@H]1CC[C@](C)(O)CC1)c1ccccc1 (atropisomer, axis not shown) [Example 148, 2-((2S,3S,4S)-5-Chloro-6-fluoro-2-((((trans)-4-hydroxy-4-methylcyclohexyl)amino)methyl)-3-methyl-2-phenyl-2,3-dihydrobenzofuran-4-yl)-3-fluoro-4-(2-hydroxy-2-methylpropoxy)benzamide] | 54 | 4 | > 20 | 53 | > 20000 | – | – | – | – |
| CNC(=O)c1ccc(OC[C@H](C)O)c(F)c1-c1c(Cl)c(F)cc2c1C[C@](c1ccccc1)([C@@H]1CCCN1)O2 (atropisomer, axis not shown) [Example 154, 2-((2S,4S)-5-Chloro-6-fluoro-2-phenyl-2-((S)-pyrrolidin-2-yl)-2,3-dihydrobenzofuran-4-yl)-3-fluoro-4-((S)-2-hydroxypropoxy)-N-methylbenzamide] | 77 | 8 | > 10 | 59 | > 10000 | – | – | – | – |
| CNC(=O)c1ccc(OCCO)c(F)c1-c1c(Cl)c(F)cc2c1C[C@](c1ccccc1)([C@@H]1CCCCN1)O2 (atropisomer, axis not shown) [Example 161, 2-((2S,4S)-5-Chloro-6-fluoro-2-phenyl-2-((S)-piperidin-2-yl)-2,3-dihydrobenzofuran-4-yl)-3-fluoro-4-(2-hydroxyethoxy)-N-methylbenzamide] | 174 | 29 | > 10 | 167 | > 10000 | – | – | – | – |
| COc1ccc(C(N)=O)c(-c2c(Cl)c(F)cc3c2C[C@](c2ccccc2)([C@@H]2CCCN2)N3)c1F (atropisomer, axis not shown) [Example 171, 2-((2S,4S)-5-Chloro-6-fluoro-2-phenyl-2-((S)-pyrrolidin-2-yl)indolin-4-yl)-3-fluoro-4-methoxybenzamide] | 116 | 2 | 15.5 | 73 | 13000 | – | – | – | – |
| CNC(=O)c1ccc(OC[C@H](C)O)c(F)c1-c1c(Cl)c(F)cc2c1C[C@](c1ccccc1)([C@@H]1CCCN1)N2 (atropisomer, axis not shown) [Example 172, 2-((2S,4S)-5-Chloro-6-fluoro-2-phenyl-2-((S)-pyrrolidin-2-yl)indolin-4-yl)-3-fluoro-4-((S)-2-hydroxypropoxy)-N-methylbenzamide] | 144 | 15 | > 20 | 104 | > 20000 | – | – | – | – |
| CNC(=O)c1cnc(OCCO)c(F)c1-c1c(Cl)c(F)cc2c1C[C@](c1ccccc1)([C@@H]1CCCN1)N2 (atropisomer, axis not shown) [Example 173, 4-((2S,4S)-5-Chloro-6-fluoro-2-phenyl-2-((S)-pyrrolidin-2-yl)indolin-4-yl)-5-fluoro-6-(2-hydroxyethoxy)-N-methylnicotinamide] | 187 | 14 | > 20 | 158 | > 20000 | – | – | – | – |

Second part, the compound after the results:

| IC50 ([1]; Homo sapiens, NCI-H2052, 24 h) [nM] | IC50 [2] [nM] | IC50 (MKN-45/Ubc-luc cells [3]; [6]) [µM] | GI50 ([4]; Homo sapiens, NCI-H2052, 72 h) [nM] | GI50 (MKN-45/Ubc-luc cells [5]; Homo sapiens) [nM] | IC50 [1] [nM] | IC50 (MKN-45/Ubc-luc cells [3]; read-out: Reporter gene assay MKN-45 IC50, MKN-45/Ubc-luc cells (YAP deleted, specificity control), 24 hours incubation) [µM] | GI50 [4] [nM] | GI50 (MKN-45/Ubc-luc cells [5]) [nM] | Compound |
| --- | --- | --- | --- | --- | --- | --- | --- | --- | --- |
| 11 | 1 | > 3.3 | 5 | > 3300 | – | – | – | – | CNC[C@]1(c2ccccc2)Oc2cc(F)c(Cl)c(-c3c(C(N)=O)ccc(OC)c3F)c2[C@@H]1CO (atropisomer, axis not shown) [Example 147, 2-((2S,3R,4S)-5-Chloro-6-fluoro-3-(hydroxymethyl)-2-((methylamino)methyl)-2-phenyl-2,3-dihydrobenzofuran-4-yl)-3-fluoro-4-methoxybenzamide] |
| 15 | 2 | > 10 | 22 | > 10000 | – | – | – | – | NC(=O)c1ccc(OCCO)c(F)c1-c1c(Cl)c(F)cc2c1C[C@](c1ccccc1)([C@@H]1CCCN1)O2 (atropisomer, axis not shown) [Example 151, 2-((2S,4S)-5-Chloro-6-fluoro-2-phenyl-2-((S)-pyrrolidin-2-yl)-2,3-dihydrobenzofuran-4-yl)-3-fluoro-4-(2-hydroxyethoxy)benzamide] |
| 36 | 2 | > 10 | 25 | > 10000 | – | – | – | – | C[C@H](O)COc1ccc(C(N)=O)c(-c2c(Cl)c(F)cc3c2C[C@](c2ccccc2)([C@@H]2CCCN2)O3)c1F (atropisomer, axis not shown) [Example 152, 2-((2S,4S)-5-Chloro-6-fluoro-2-phenyl-2-((S)-pyrrolidin-2-yl)-2,3-dihydrobenzofuran-4-yl)-3-fluoro-4-((S)-2-hydroxypropoxy)benzamide] |
| 24 | < 1 | > 10 | 104 | > 10000 | – | – | – | – | CNC(=O)c1ccc(OCCO)c(F)c1-c1c(Cl)c(F)cc2c1C[C@](c1ccccc1)([C@@H]1CCCN1)O2 (atropisomer, axis not shown) [Example 153, 2-((2S,4S)-5-Chloro-6-fluoro-2-phenyl-2-((S)-pyrrolidin-2-yl)-2,3-dihydrobenzofuran-4-yl)-3-fluoro-4-(2-hydroxyethoxy)-N-methylbenzamide] |
| 12 | 1 | > 8 | 23 | > 8000 | – | – | – | – | NC(=O)c1ccc(OCCO)c(F)c1-c1c(Cl)c(F)cc2c1C[C@](c1ccccc1)([C@@H]1CCCN1)N2 (atropisomer, axis not shown) [Example 170, 2-((2S,4S)-5-Chloro-6-fluoro-2-phenyl-2-((S)-pyrrolidin-2-yl)indolin-4-yl)-3-fluoro-4-(2-hydroxyethoxy)benzamide] |
| – | 1 | – | – | – | 26 | > 10 | 81 | > 10000 | COc1ccc(C(N)=O)c(-c2c(Cl)ccc3c2C[C@@](CN[C@H]2CC[C@H](O)CC2)(c2ccccc2)O3)c1F (relative stereo) [Example 27a, 2-((2S,4S)-5-Chloro-2-(((trans-4-hydroxycyclohexyl)amino)methyl)-2-phenyl-2,3-dihydrobenzofuran-4-yl)-3-fluoro-4-methoxybenzamide] |
